From PubChem BioAssay AID1259407 (Chemical Carcinogenesis Research Information System (CCRIS), 2018)
Calls of active or inactive are those of the source. The rule behind the calls is not given here.

Tested on: CCRIS mutagenicity, Ames/micronucleus/aberration tests
Assay: CCRIS mutagenicity studies

SMILES	mutagenic call (Test System: AMES SALMONELLA TYPHIMURIUM, Strain/Indicator: TA98, Metabolic Activation: NONE, Method: PREINCUBATION)	mutagenic call (Test System: AMES SALMONELLA TYPHIMURIUM, Strain/Indicator: TA98, Metabolic Activation: NONE, Method: STANDARD PLATE)	mutagenic call (Test System: AMES SALMONELLA TYPHIMURIUM, Strain/Indicator: TA98, Metabolic Activation: RAT, LIVER, S-9, AROCLOR 1254, Method: PREINCUBATION)	mutagenic call (Test System: AMES SALMONELLA TYPHIMURIUM, Strain/Indicator: TA98, Metabolic Activation: RAT, LIVER, S-9, AROCLOR 1254 OR PHENOBARBITOL, Method: STANDARD PLATE)	mutagenic call (Test System: AMES SALMONELLA TYPHIMURIUM, Strain/Indicator: TA100, Metabolic Activation: NONE, Method: STANDARD PLATE)	mutagenic call (Test System: AMES SALMONELLA TYPHIMURIUM, Strain/Indicator: TA100, Metabolic Activation: RAT, LIVER, S-9, AROCLOR 1254 OR PHENOBARBITOL, Method: STANDARD PLATE)	mutagenic call (Test System: AMES SALMONELLA TYPHIMURIUM, Strain/Indicator: TA1535, Metabolic Activation: NONE, Method: STANDARD PLATE)	mutagenic call (Test System: AMES SALMONELLA TYPHIMURIUM, Strain/Indicator: TA1535, Metabolic Activation: RAT, LIVER, S-9, AROCLOR 1254 OR PHENOBARBITOL, Method: STANDARD PLATE)	mutagenic call (Test System: AMES SALMONELLA TYPHIMURIUM, Strain/Indicator: TA1537, Metabolic Activation: NONE, Method: STANDARD PLATE)	mutagenic call (Test System: AMES SALMONELLA TYPHIMURIUM, Strain/Indicator: TA1537, Metabolic Activation: RAT, LIVER, S-9, AROCLOR 1254 OR PHENOBARBITOL, Method: STANDARD PLATE)	mutagenic call (Test System: AMES SALMONELLA TYPHIMURIUM, Strain/Indicator: TA1538, Metabolic Activation: NONE, Method: STANDARD PLATE)	mutagenic call (Test System: AMES SALMONELLA TYPHIMURIUM, Strain/Indicator: TA1538, Metabolic Activation: RAT, LIVER, S-9, AROCLOR 1254 OR PHENOBARBITOL, Method: STANDARD PLATE)	mutagenic call (Test System: UDS RAT HEPATOCYTES, Strain/Indicator: THY INCORP, Metabolic Activation: NONE)
O=[N+]([O-])c1ccc(Nc2ccc(N=C=S)cc2)cc1	inactive; negative	inactive; negative	inactive; negative	inactive; negative	inactive; negative	inactive; negative	inactive; negative	inactive; negative	inactive; negative	inactive; negative	inactive; negative	inactive; negative	–
CCCCCC(C)[N+](=O)[O-] (stereo not drawn)	–	–	–	–	–	–	–	–	–	–	–	–	active; positive
